Values quoted from earlier work as cited in patent US11013731B2, “Intratumoral administration of sirolimus for treatment of prostate cancer” (SANTEN PHARMACEUTICAL CO., LTD., priority 2017, dated 2021).

Settings: according to Medscape

oral bioavailability: 14%
SMILES: CO[C@H]1C[C@@H]2CC[C@@H](C)[C@@](O)(O2)C(=O)C(=O)N2CCCC[C@H]2C(=O)O[C@H]([C@H](C)C[C@@H]2CC[C@@H](O)[C@H](OC)C2)CC(=O)[C@H](C)/C=C(\C)[C@@H](O)[C@@H](OC)C(=O)[C@H](C)C[C@H](C)/C=C/C=C/C=C/1C [sirolimus]
